In data set [1] the test system is A549 lung cancer cell xenografts in zebrafish. The settings on record: 0.5 μM, bright field images. As to the method:
(§1) First, zebrafish embryos were divided into 7 groups at an average of 65 embryos per group. […] Briefly, live human lung cancer cells (A549) were labeled with CM-DiI (red) and only live cells were transplanted via injection into the perivitelline space of 30 zebrafish embryos 24 hours post fertilization (hpf) (Sittaramane et al., 2015; Veinotte et al., 2014; Xie et al., 2015). Tumor inoculated zebrafish embryos were allowed to grow for one day till 48 hpf. This allows for establishment of the cancer cells in the host zebrafish embryos.

Data set [2] deals with A549 lung cancer cells. In words: ICP-MS detection of intracellular Au (cellular uptake). The settings on record: A549 cells, in words. As to the method:
Roughly 7−8×10^6 cells were grown to 70-80% confluence in T-75 cell culture flasks (Thermo 130190) and treated with respective compound in RPMI medium supplemented with 10% FBS and antibiotics for the desired incubation time. The medium was then removed and cells were washed with 8 mL 1× warm PBS. 2 mL 1×PBS was then added to each flask, and the cells were removed by scraping. Each cell suspension was then pipetted into a clean, labeled 15 mL centrifuge tube (Thermo 339650). Cells were pelleted by centrifuging at 1,000 rpm for 5 min in an Eppendorf 5804 with a swing-bucket rotor. The supernatant was removed by vacuum aspiration, and the pellet was resuspended in 50 μL autoclaved deionized water. Suspension/lysates were then kept at −80° C. until further use. After thawing, the lysates were then sonicated using a Branson Digital Sonifier, and 5 μL aliquots were taken for determination of protein content of the sample. Lysates were digested with 80 μL aqua regia and heated to 65° C. for 1 h. Digested lysates were diluted with 4 mL 3% Trace Metal Grade HCl and gold content was measured on a Perkin Elmer NexION 300× set to detect gold at 197 m/z. Gold concentrations were quantified using the linear range of a standard curve generated by serial dilution of an ICP-MS gold standard (Ricca MSAU1KH-100) in 3% HCl. Values were then normalized to protein content as determined using a Modified Lowry Protein Assay Kit (Thermo 23240) and known concentrations of bovine serum albumin (Fisher 9048-46-8).
The Modified Lowry Assay was used to determine the protein content of each sample for normalization purposes. The standard curve for each run was made from a 2-fold serial dilution of fresh 5 mg/mL BSA solution. Aliquots were diluted to within the linear range of the standard curve using autoclaved DI water, and subjected to the Modified Lowry Assay in round-bottomed 96-well clear plates (Fisher 12565500). […] All other aspects of the procedure were as detailed in the microplate procedure instructions that come with the kit.

For data set [3], the system named is zebrafish embryos/larvae. As to the method: as §1
The embryonic development of zebrafish embryos was monitored at 48 hpf and 72 hpf to record the number of dead embryos.

Data set [4] relates to A549 cells. The experiment in a line: Detection of intracellular ROS by flow cytometry (CM-H2DCFDA). It is filed as cell-based, human. As to conditions: A549, 2.5 μM, 6 h incubation. As to the method: To establish whether or not the complexes of this disclosure would increase intracellular ROS levels, A549 cells were treated with each complex in a dose responsive manner.
Tumor cells (1×10^6) were plated in a 6-well plate overnight and then incubated with media containing various complexes described at concentrations of 0.625-2.5 μM. Control cells were treated with vehicle only. After a 6 h. incubation, the cells were washed with PBS, detached with 0.250 mL 1× trypsin, collected in a 15 mL conical tube, and pelleted by centrifugation (3 min @ 300 g) at 5° C. The resulting pellet was again washed 2× with cold PBS and pelleted at 5° C. […] The cells were then pelleted, washed with 2 mL PBS, and re-suspended in PBS containing 2 μg/mL propidium iodide (PI, Chemodex P0023) for a final cell concentration of 0.5×10^6 cells/mL. Control samples of unstained cells, cells stained with only CM-H2DCFDA, and cells stained with only PI were also prepared. Each sample was added to one well of a 96-well plate. Samples were then subjected to FACS analysis using a Millipore Guava easyCyte 8 and analyzed using the Guava inCyte software.

For data set [5], the system named is 2780CP ovarian (multi-drug resistant). The experiment in a line: Cell proliferation (MTT) assay in 2780CP ovarian cells. It is filed as cell-based. The settings on record: Table 3; error is standard error of the mean. As for the experimental part:
(§2) Further anti-proliferation studies were carried out with complex 1 and its naphthoquinone component 4[H][Cl] using the following cell lines: A2780 ovarian (a wt-p53 cell line sensitive to platinum treatment), 2780CP ovarian (isogenic to A2780 but expressing multi-drug resistance (MDR)), and PC-3 prostate (p53 null) (Table 3).
(§3) Cells were harvested and seeded into 96-well culture plates (Costar 07-200-90) in 100 μL of culture media. They were allowed to incubate overnight at 37° C. in the presence of 5% CO2. A549 was seeded at a density of 1000 cells/well, A2780 at 2500 cells/well, A2780CP at 3000 cells/well, and PC-3 at 2000 cells/well. The next day, appropriate serial dilutions of drug stocks in culture media were made. To each well of a 96 well plate was added 100 μL of the appropriate solution. After a total of three days, a […] aliquot of 3 mg/mL tetrazolium dye, 344,5-dimethylthiazol-2-yl)-2,5-diphenyltetrazolium bromide (Alfa Aesar L11939) was added to each well, followed by a 4 hr incubation period at 37° C. The medium was then removed, the resulting formazan was dissolved in […] DMSO and the respective absorbances were measured at 560-650 nm using a microplate reader (Molecular Devices, Sunnyvale, Calif.). Absorbance values were corrected for background and then normalized to wells containing untreated cells to allow for plate-to-plate comparisons. […]

Data set [6] deals with A2780 ovarian (wt-p53, platinum sensitive). In words: Cell proliferation (MTT) assay in A2780 ovarian cells. It is filed as cell-based. As to conditions: Table 3; error is standard error of the mean. As for the experimental part:
as §2, §3

The subject of data set [7] is A549 cells. As to conditions: A549, 24 h.
Procedure: Control cells were treated with vehicle only. At 24 h, the media was collected and the cells were washed with PBS. The PBS washing was collected and the attached cells were then subjected to 0.5× trypsin (diluted with PBS) for 2 min. All media and washings were collected, pelleted by centrifugation (3 min @ 300 g) and washed twice with cold PBS. […] After this, 100 μL of cell suspension was added to 1.5 mL centrifuge tubes, followed by 5 μL each of Annexin V-FITC and propidium iodide (PI, 50 μg/mL) solution. Control samples of unstained cells, cells stained with only Annexin V-FITC, and cells stained with only PI were also prepared. Samples were allowed to incubate in the dark for 15 min at ambient temperature. After incubation, each sample was diluted with 200 μL of Annexin V binding buffer, and the resulting 300 μL sample was added to one well of a 96-well plate. Samples were then subjected to FACS analysis using a Millipore Guava easyCyte 8 and analyzed using Guava inCyte software.

The values that follow come from patent US11332483B2, “Naphthoquinone containing gold carbene complexes and methods of uses thereof” (BOARD OF REGENTS, THE UNIVERSITY OF TEXAS SYSTEM, priority 2017, dated 2022).

Regarding `Cc1cc(C)c(-n2c3c([n+](-c4c(C)cc(C)cc4C)[c]2[Au-][c]2n(-c4c(C)cc(C)cc4C)c4c([n+]2-c2c(C)cc(C)cc2C)C(=O)c2ccccc2C4=O)C(=O)c2ccccc2C3=O)c(C)c1.[Cl][Ag-][Cl]` [Compound 1, [Bis(1,3-dimesityl-4,5-naphthoquino-imidazol-2-ylidene)-gold(I)] [Silver(I)dichloride]], the “non-specific cell death in the developing zebrafish larvae” value in data set [1] is “no non-specific cell death”. The “intracellular Au levels (ICP-MS)” value in data set [2] is “identical”. Further, in data set [3] (0.5 μM), the “toxic effect relative to vehicle” value is “no observable toxic effect”. Besides, in data set [3] (concentrations above 1 μM), the lethality stood at 100%. In data set [3] (zebrafish embryos/larvae), this compound displayed an LD50 of 0.75 µM. Also, the “fluorescence associated cell population shift (intracellular ROS increase)” value in data set [4] is given as 27 fold. Moreover, the IC50 in data set [5] was 54 ± 6 nM; in data set [6] it was 26 ± 7 nM. The “induction of apoptosis (annexin-V/PI)” value in data set [7] is “induces controlled cell death via an apoptotic mechanism”.
